In US20210395680A1, “COMPOSITION AND KIT FOR DIFFERENTIATION OF STEM CELLS INTO NEURAL PROGENITOR CELLS, AND METHOD USING SAME” (CHA UNIVERSITY INDUSTRY-ACADEMIC COOPERATION FOUNDATION, priority 2018, published 2021):

Tests used:
[1] = test system: H9 human embryonic stem cells (hESCs); assay: Differentiation of H9 hESCs into neural progenitor cells via embryoid bodies; SOX1/P75 flow cytometry; assay type: cell-based
[2] = test system: H9 human embryonic stem cells (hESCs); assay: as above; assay type: cell-based; remark: listed apart in the source
Procedure: Colonies obtained by culturing H9 human embryonic stem cells (hESCs) (WiCell Research Institute, Inc. Madison, Wis., U.S.A.) in a culture medium were dissociated into single cells using accutase (Life Technologies).
The cells dissociated into single cells were seeded in a culture plate coated with a protein such as vitronectin (VTN) (vitronectin XF, STEMCELL Technologies), laminine (rhLaminin-521, Thermo Fisher Scientific Inc., Waltham, Mass., USA), fibronectin (Thermo Fisher Scientific Inc.), or Matrigel™ (StemCell Technologies, Inc.). An embryonic stem cell (ESC) culture medium was added to the seeded cells to perform undifferentiation culture. As the ESC culture medium, Essential 8 (E8) medium (StemCell Technologies Inc.), TeSR2 medium (StemCell Technologies Inc), StemMACS (Miltenyi Biotec, Bergisch Gladbach, Germany), etc. was used.
(§1) The obtained colonies were finely chopped and suspension-cultured under conditions of 37° C. and 5% CO2 in a defined medium 1 containing 5 […] of a PKC inhibitor and 0.5 μM of a BMP inhibitor for about 4 days to prepare embryoid bodies (EBs). The defined medium 1 included DMEM/F12 (Life Technologies), 10 μg/ml of insulin (Sigma-Aldrich), 9 μg/ml of transferrin (Sigma-Aldrich), and 14 ng/ml of sodium selenite (Sigma-Aldrich). 3-(1-(3-Imidazol-1-yl propyl)-1H-indol-3-yl)-4-anilino-1H-pyrrole-2,5-dione) (PKC-beta inhibitor) (Millipore) was used as the PKC inhibitor. DMH1 (dorsomorphin homolog 1) (Tocris Bioscience, USA) which is a compound inhibiting BMP 1 type receptor was used as the BMP inhibitor. As a negative control, dimethyl sulfoxide (DMSO) (Sigma-Aldrich) was used instead of the drug.
(§2) EBs, which are round cell masses produced by suspension culture (defined medium 1) for about 4 days, were finely chopped, and then adhered to the bottom of the culture plate, followed by adherent culture for about 5 days (DMEM-F12, 1×N2 supplement, 25 μg/ml of insulin, 20 ng/ml of bFGF, and a matrigel-coated culture plate were used). Microscopic images of EBs obtained by suspension culture for about 4 days, and cells forming rossettes obtained by adherent culture for about 5 days are shown in FIG. 1B (left: embryoid bodies, right: cells forming rosettes).
2% (v/v) paraformaldehyde (Sigma-Aldrich) was added to cells cultured for a total of 9 days (suspension culture for 4 days+adherent culture for 5 days), and allowed to react at room temperature for about 10 minutes to fix the cells. 2% (v/v) normal serum/1×PBS (Vector Laboratories, Inc., Burlingame, Calif.) containing 0.1% (v/v) TRITON™ X-100 (Sigma-Aldrich) was added to the cells, and allowed to react at room temperature for 30 minutes to block the fixation. To analyze a proportion of cells expressing SOX1 which is a neural progenitor cell (NPC) marker or P75 protein which is a neural crest stem cell (NCSC) marker, immunostaining was performed using phycoerythrin (PE)-labeled anti-P75 monoclonal antibody (1:50 dilution) (Miltenyi Biotec), and phycoerythrin (PE)-labeled anti-Sox1 monoclonal antibody (1:100 dilution) (BD Biosciences). The immunostained cells were subjected to flow cytometry using a BD FACSCalibur flow cytometer (BD Biosciences, Sparks, Md., USA).
H9-hESCs were cultured by the method of differentiating via embryoid bodies as in Example 1.1(1). However, a defined medium 2 described below was used instead of the defined medium 1 used in Example 1.1(1).
The defined medium 2 was prepared by mixing knockout DMEM (Invitrogen), 20% (v/v) knockout serum replacement (KSR, Invitrogen), 2 mM L-glutamine (invitrogen), 1% (w/v) penicillin/streptomycin (Invitrogen), and 0.1 mM β-mercaptoethanol (Invitrogen).
H9-hESCs were cultured by the method of differentiating via embryoid bodies as in Example 1(1). However, a defined medium 3 was used instead of the defined medium 1 used in Example 1(1). The defined medium 3 was prepared by mixing DMEM/F12 (Invitrogen) and N2 supplement (Invitrogen). […]

CHA15-hESC = assay: Differentiation of CHA15-hESC into neural progenitor cells; SOX1/P75 flow cytometry; assay type: cell-based, human; conditions: defined medium 1 including PKC inhibitor and BMP inhibitor; total of 9 days
Procedure: as §1
as §2, with “rosettes). […]” for “rosettes).”

CHA6-hESC = assay: Differentiation of CHA6-hESC into neural progenitor cells; SOX1/P75 flow cytometry; assay type: cell-based, human; conditions: defined medium 1 including PKC inhibitor and BMP inhibitor; total of 9 days
Procedure: as §1
as §2, with “rosettes). […]” for “rosettes).”

[3] = test system: induced pluripotent stem cell line (iPS cell #3); assay: Differentiation of induced pluripotent stem cell line (iPS cell #3) into neural progenitor cells; SOX1/P75 flow cytometry; assay type: cell-based, human; conditions: defined medium 1 including PKC inhibitor and BMP inhibitor; total of 9 days
Procedure: as §1
as §2, with “rosettes). […]” for “rosettes).”

[4] = defined medium 2 including PKC inhibitor and BMP inhibitor
[5] = defined medium 3 including PKC inhibitor and BMP inhibitor

| Compound | differentiation into P75-expressing neural crest stem cells ([1]; defined medium 1, only 5 μM PKC inhibitor without DMH1) | cells expressing SOX1 (NPC marker) ([2]; defined medium 1, 5 μg/ml PKC inhibitor + 0.5 μM DMH1, suspension culture 4 days + adherent culture 5 days) | number of cells expressing P75 (neural crest stem cell marker) ([2]; defined medium 1, 5 μg/ml PKC inhibitor + 0.5 μM DMH1, total of 9 days culture) | differentiation into NPC ([2]; defined medium 1 including PKC inhibitor and DMH1) | differentiation into NPCs [2, 4] | number of cells expressing P75 (neural crest stem cell marker) [2, 4] | cells expressing SOX1 (NPC marker) ([2]; defined medium 2 including PKC inhibitor and BMP inhibitor, 4 days suspension + 5 days adherent) | differentiation into NPCs [2, 5] | number of cells expressing P75 (neural crest stem cell marker) [2, 5] | cells expressing SOX1 (NPC marker) ([2]; defined medium 3 including PKC inhibitor and BMP inhibitor, 4 days suspension + 5 days adherent) | differentiation into NPCs (CHA15-hESC) | differentiation into NPCs (CHA6-hESC) | differentiation into NPCs [3] | differentiation into SOX1-expressing NPCs ([1]; defined medium 1, 5 μM PKC inhibitor + 0.25 μM to 5 μM DMH1) | differentiation into P75-expressing neural crest stem cells ([1]; defined medium 2, 5 μM PKC inhibitor + 0 μM to 0.5 μM DMH1) | differentiation into SOX1-expressing NPCs ([1]; defined medium 2, 5 μM PKC inhibitor + 5 μM DMH1) |
| --- | --- | --- | --- | --- | --- | --- | --- | --- | --- | --- | --- | --- | --- | --- | --- | --- |
| O=C1NC(=O)C(c2cn(CCCn3ccnc3)c3ccccc23)=C1Nc1ccccc1 [PKC inhibitor] | ≥ 87% |  |  |  |  |  |  |  |  |  |  |  |  |  |  |  |
| CC(C)Oc1ccc(-c2cnc3c(-c4ccnc5ccccc45)cnn3c2)cc1 [DMH1, 4-[6-[4-(1-methylethoxy)phenyl]pyrazolo[1,5-a]pyrimidin-3-yl]-quinoline] |  | most of the cultured cells expressed SOX1 | small | differentiation into NPC is induced | differentiation into NPCs is induced | relatively very small | most of the cultured cells expressed SOX1 | differentiation into NPCs is induced | relatively very small | most of the cultured cells expressed SOX1 | differentiation into NPCs is induced | differentiation into NPCs is induced | differentiation into NPCs is induced | ≥ 96% | ≥ 84% | ≥ 96% |
